Test results from US20060247156A1, “Use of neuropeptides for ligament, cartilage, and bone healing” (priority 2004, published 2006).
Where “and” joins values, the source holds several entries; their conditions need not be identical. Equal values may be shown once.

Tests used:
healing MCL = assay: Local neuropeptide delivery to normally innervated healing MCL: mechanical testing, histomorphology; format: in vivo, rat; details: for histomorphology (H&E) of healing MCL: Example 7, two weeks of healing; for failure force / ultimate stress: Example 7: normally innervated rats, bilateral MCL rupture, mini-osmotic pump (SP 75, CGRP 10, NPY 65, VIP 100 pg/100 μl)
Method: Animal Model and Surgery: Forty female Wistar rats (200-250 g) were divided into five groups.
All rats underwent bilateral MCL rupture. Neuropeptides were then delivered ruptured MCLs unilaterally. Neuropeptide infused mini-osmotic pumps (Alzet Corp.) were implanted subcutaneously into the back of each rat. A small catheter running from the pump was run to an intramuscular space above the MCL and was secured.
Mechanical Testing: Mechanical testing was performed as described in Chapter 2. Briefly, animal hind limbs from all groups (n=5 for all groups) were disarticulated at the hip joint and stored at −80° C. until testing. On the day of testing, MCLs including intact femoral and tibial bone sections were excised for ex vivo testing. Ligament thickness and width was measured optically, and MCL area was estimated with elliptical geometry. For strain measurements, optical markers were placed onto the ligament tissue near the insertion sites. A small preload of 0.1N was applied to the ligaments in order to obtain a uniform starting point. The ligaments were then preconditioned to 1% strain for 10 cycles. After preconditioning, ligaments were pulled to failure at a rate of 10% per second.
Tissue displacement was obtained using video dimensional analysis using equations (1) and (2) supra. The mechanical properties that were examined in this study were maximum force, ultimate stress, strain at failure, elastic modulus, and area. Statistical analysis was performed using paired ttests to compare each treated MCL to its contralateral control (alpha=0.05).
Ligaments were immediately fixed in formalin fixative for three days at room temperature. Specimens were embedded in paraffin, sectioned (6 μm), mounted on slides, and stained with hematoxylin and eosin (H&E).

[1] = system: bovine articular chondrocytes; assay: Bovine chondrocytes proliferation assay (CellTiter 96 AQueous One); format: cell-based; details: CGRP 100 pg/ml, NPY 50 ng/ml, SP 500 pg/ml, VIP 1 ng/ml
Method: (§1) Cartilage chunks were then digested at 37° C. in DMEM containing 0.05% hyaluronidase for 30 minutes, followed by 0.05% collagenase digestion overnight. The digests were filtered through 40-micron nylon mesh and centrifuged at 600×g for 20 minutes. The cell pellets were then resuspended in DMEM and counted using a hemacytometer.
(§2) Cells were plated at 1×10^5 cells/well in 12-well plates (n=9) for proteoglycan assays and at 2×10^4 cells/well in 96-well plates (n=16) for proliferation assays. The culture volumes were 1 ml/well in 12-well plates and 100 μl/well in 96-well plates.
(§3) The plates were incubated at 37° C. in a humidified CO2 incubator for 3 days to allow the cells to recover from the harvesting procedure.
(§4) On Day 3 of treatment, 20 μl of CellTiter 96® AQueous One Solution Cell Proliferation Assay (Promega Corporation, Madison, Wis.) was added to each well of the 96-well cultures for 60 minutes, and cells in the 12-well plates were digested with 0.125 units of papain/well overnight. After the 60-minute incubation, the absorbance of the color generated by the cells in the 96-well plates was measured at wavelength 490 nm.

[2] = system: bovine articular chondrocytes; assay: Bovine chondrocytes glycosaminoglycan assay (DMMB); format: cell-based; details: Day 3 of treatment, individual wells
Method: as §1, §2, §3, §4
Following papain digestion of the cultures in 12-well plates, the amount of glycosaminoglycan (representative of proteoglycans) in each well was measured using the dimethylmethylene blue (DMMB) dye-binding assay. The results were statistically analyzed and plotted.

[3] = system: Bovine nucleus pulposus cells; assay: Bovine nucleus pulposus (intervertebral disc) cell proliferation; format: cell-based; details: day 1, day 2, day 3
Method: Bovine calf spines and femoral condyles were obtained from a slaughterhouse and freshly transported to the laboratory. Nucleus pulposus tissue was carefully dissected, avoiding annular and endplate cartilage tissues, from each disc. Articular cartilage from femoral condyles was dissected in the same manner. […] Cells were harvested by overnight digestion with hyaluronidase and collagenase, followed by filtration. Cells were plated at a density of 1×10^5 cells/ml and incubated at 37° C. in 5% CO2 and 95% air in the presence of each neuropeptide or media only (control). At various time points in growth, cells were collected for proliferation and glycosaminoglycan (GAG) production assays. Varying concentrations of NPs were examined.
Well established colorimetric and luminescent assays (CellTiter 96® AQueous Non-radioactive Cell Proliferation and CellTiter-Glo® Luminescent Cell Viability Assays, Promega, Madison, Wis.) were used to quantify the effect of each NP on cell proliferation. In addition, corresponding cell cultures during growth were digested with papain to release glycosaminoglycans (GAGs). Dimethyl methylene blue (DMMB) colorimetric assays were used to quantify the amount of GAGs in each culture.
Multiple samples for test and control groups were performed simultaneously. Statistical analyses using one way analysis of variance (ANOVA) with large degrees of freedom (n=12 for GAG assays; n=24 for proliferation assays) were performed to establish the significance of differences between test groups and control groups for each day of growth in culture.
The effect of neuropeptides on intervertebral disc cell proliferation was examined in order to elucidate further the pathophysiology of degenerative disc disease. Bovine nucleus pulposus cells were incubated with the same neuropeptides.

Substance	histomorphology (H&E) of healing MCL (healing MCL)	healed MCL strength relative to intact MCL strength (healing MCL; Example 7: SP, two weeks of healing) [%]	failure force (healing MCL; two weeks of healing)	ultimate stress (healing MCL; two weeks of healing) [MPa]	proliferation of articular chondrocytes compared to controls (in words) [1]	Glycosaminoglycan Assay ([2]; SP 500 pg/ml)	disc cell proliferation compared to controls ([3]; CGRP 10 ng/ml, NPY (mcg/ml, SP 5 mcg/ml))	Glycosaminoglycan Assay ([2]; VIP 1 ng/ml)	disc cell viability ([3]; VIP 100 ng/ml)
Substance P [SP]	greatly improved tissue alignment	60	no change	13.4±8.9	stimulate proliferation	8.6 μg/dish and 9.1 μg/dish and 8.373 μg/dish and 7.011 μg/dish and 6.556 μg/dish and 7.192 μg/dish and 7.238 μg/dish and 7.283 μg/dish and 8.01 μg/dish	stimulate disc cell proliferation		
vasoactive intestinal peptide [VIP]	greatly improved tissue alignment		10.2±3.0 N	5.1±1.6	stimulate proliferation			7.419 μg/dish and 5.966 μg/dish and 6.874 μg/dish and 6.42 μg/dish and 6.965 μg/dish and 3.785 μg/dish and 6.147 μg/dish and 6.511 μg/dish and 8.328 μg/dish	negative influence
